From patent publication US5462935A, “Cephalosporin compounds” (Lucky Limited, priority 1990, dated 1995)
In brackets after ≈: the same amount, converted by molar mass.

What was measured:
[1] = acute toxicity test, intravenous; conditions: mouse, in vivo, ICR mice, observed for 14 days
Source text: The results are shown in the last row of Table 2.

[2] = system: Proteus vulgaris ATCC 6059; test: minimal inhibitory concentration, two-fold agar dilution; assay type: cell-based; conditions: ATCC6059, Muller-Hinton agar, 37° C., 20 hours
Method: (§1) These NIC values were taken by employing a two-fold dilution method: that is, two-fold serial dilutions of each of the test compounds were made and dispersed in a Muller-Hinton agar medium; 2 μl of the standard test strain which had the 10^7 CFU (Colony Forming Unit) per ml was inoculated on the medium; and these were incubated at 37° C. for 20 hours.

[3] = system: Morganella morganii ATCC 8076h; test: as above; assay type: cell-based; conditions: ATCC8076H, 20 h
Method: as §1

[4] = system: Enterobacter aerogenes ATCC 29751; test: as above; assay type: cell-based; conditions: Klebsiella aerogenes, ATCC29751, 20 h
Method: as §1

[5] = system: Acinetobacter calcoaceticus ATCC 15473; test: as above; assay type: cell-based; conditions: ATCC15473, Muller-Hinton agar, 37° C., 20 hours
Method: as §1

[6] = system: Escherichia coli ATCC 10536; test: as above; assay type: cell-based; conditions: ATCC10536, Muller-Hinton agar, 37° C., 20 hours
Method: as §1

[7] = system: Shigella sonnei ATCC 11060; test: as above; assay type: cell-based; conditions: ATCC11060, Muller-Hinton agar, 37° C., 20 hours
Method: as §1

[8] = system: Proteus mirabilis ATCC 25933; test: as above; assay type: cell-based; conditions: ATCC25933, Muller-Hinton agar, 37° C., 20 hours
Method: as §1

[9] = system: Pseudomonas aerugionsa ATCC 27853; test: as above; assay type: cell-based; conditions: ATCC27853, Muller-Hinton agar, 37° C., 20 hours
Method: as §1

[10] = system: Bacillus megaterium ATCC 9885; test: as above; assay type: cell-based; conditions: Priestia megaterium, ATCC9885, 20 h
Method: as §1

ATCC 12228 = test: as above; assay type: cell-based; conditions: Staphylococcus faecalis, ATCC12228, 20 h
Method: as §1

[11] = system: Serratia marcescens ATCC 27117; test: as above; assay type: cell-based; conditions: ATCC27117, Muller-Hinton agar, 37° C., 20 hours
Method: as §1

[12] = system: Shigella flexneri ATCC 11836; test: as above; assay type: cell-based; conditions: ATCC11836, Muller-Hinton agar, 37° C., 20 hours
Method: as §1

[13] = system: Enterobacter cloacae ATCC 27508; test: as above; assay type: cell-based; conditions: ATCC27508, Muller-Hinton agar, 37° C., 20 hours
Method: as §1

[14] = system: Staphylococcus aureus ATCC 6638p; test: as above; assay type: cell-based; conditions: ATCC6638P, 20 h
Method: as §1

[15] = system: Providencia rettgeri ATCC 9250; test: as above; assay type: cell-based; conditions: ATCC9250, Muller-Hinton agar, 37° C., 20 hours
Method: as §1

[16] = system: Salmonella typhimurium ATCC 14028; test: as above; assay type: cell-based; conditions: Salmonella enterica, Muller-Hinton agar, 37° C., 20 hours
Method: as §1

[17] = system: Pseudomonas aeruginosa ATCC 25619; test: as above; assay type: cell-based; conditions: ATCC25619, Muller-Hinton agar, 37° C., 20 hours
Method: as §1

[18] = system: Escherichia coli ATCC 25922; test: as above; assay type: cell-based; conditions: ATCC25922, Muller-Hinton agar, 37° C., 20 hours
Method: as §1

[19] = system: Bacillus cereus ATCC 11778; test: as above; assay type: cell-based; conditions: Bacillus cereus, ATCC11778, 20 h
Method: as §1

[20] = system: Klebsiella pneumoniae ATCC 10031; test: as above; assay type: cell-based; conditions: ATCC10031, Muller-Hinton agar, 37° C., 20 hours
Method: as §1

[21] = system: Streptococcus faecalis ATCC 29212; test: as above; assay type: cell-based; conditions: Enterococcus faecalis, ATCC29212, Muller-Hinton agar, 37° C., 20 hours
Method: as §1

[22] = system: Staphylococcus epidermidis ATCC 10537; test: as above; assay type: cell-based; conditions: ATCC10537, Muller-Hinton agar, 37° C., 20 hours
Method: as §1

[23] = system: Pseudomonas aerugionsa ATCC 10145; test: as above; assay type: cell-based; conditions: ATCC10145, Muller-Hinton agar, 37° C., 20 hours
Method: as §1

[24] = system: Micrococcus luteus ATCC 9341; test: as above; assay type: cell-based; conditions: ATCC9341, Muller-Hinton agar, 37° C., 20 hours
Method: as §1

[25] = system: Citrobacter freundii ATCC 8090; test: as above; assay type: cell-based; conditions: ATCC8090, Muller-Hinton agar, 37° C., 20 hours
Method: as §1

Compound | LD50 at 336 h [1] [mg/kg] | MIC [2] [µg/mL] | MIC [3] [µg/mL] | MIC [4] [µg/mL] | MIC [5] [µg/mL] | MIC [6] [µg/mL] | MIC [7] [µg/mL] | MIC [8] [µg/mL] | MIC [9] [µg/mL] | MIC [10] [µg/mL] | MIC (ATCC 12228) [µg/mL] | MIC [11] [µg/mL] | MIC [12] [µg/mL] | MIC [13] [µg/mL] | MIC [14] [µg/mL] | MIC [15] [µg/mL] | MIC [16] [µg/mL] | MIC [17] [µg/mL] | MIC [18] [µg/mL] | MIC [19] [µg/mL] | other results
Cc1c(N)nc(SCC2=C(C(=O)[O-])N3C(=O)C(NC(=O)/C(=N\O[C@@H](C)C(=O)O)c4csc(N)n4)C3SC2)[n+](C)c1N (stereo partly drawn) [I-S-6, 7-[(Z)-2-(2-aminothiazol-4-yl)-2-[(S)-1-carboxyeth-1-oxyimino]acetamido]-3-[(4,6-diamino-1,5-dimethylpyrimidinium-2-yl)thiomethyl]-3-cephem-4-carboxylate] | > 3000 | 0.031 (≈ 0.0497 µM) | ≤ 0.008 | 0.5 (≈ 0.802 µM) | 4 (≈ 6.41 µM) | 0.031 (≈ 0.0497 µM) | 0.031 (≈ 0.0497 µM) | 0.031 (≈ 0.0497 µM) | 1 (≈ 1.6 µM) | 0.25 (≈ 0.401 µM) | 1 (≈ 1.6 µM) | 0.13 (≈ 0.208 µM) | 0.016 (≈ 0.0257 µM) | ≤ 0.008 | 4 (≈ 6.41 µM) | ≤ 0.008 | 0.13 (≈ 0.208 µM) | 1 (≈ 1.6 µM) | 0.031 (≈ 0.0497 µM) | 64 (≈ 103 µM) | MIC [20]: 0.031 µg/mL (≈ 0.0497 µM); MIC [21]: > 128 µg/mL; MIC [22]: 2 µg/mL (≈ 3.21 µM); MIC [23]: 2 µg/mL (≈ 3.21 µM); MIC [24]: 0.25 µg/mL (≈ 0.401 µM); MIC [25]: 0.016 µg/mL (≈ 0.0257 µM)
C[C@@H](O/N=C(\C(=O)NC1C(=O)N2C(C(=O)[O-])=C(CSc3nc(N)cc(N)[n+]3C)CS[C@H]12)c1csc(N)n1)C(=O)O (stereo partly drawn) [I-R-2, 7-[(Z)-2-(2-aminothiazol-4-yl)-2-[(R)-1-carboxyeth-1-oxyimino]acetamido]-3-[(4,6-diamino-1-methylpyrimidinium-2-yl)thiomethyl]-3-cephem-4-carboxylate] | > 3000 | 0.031 (≈ 0.0508 µM) | ≤ 0.008 | 1 (≈ 1.64 µM) | 4 (≈ 6.56 µM) | 0.063 (≈ 0.103 µM) | 0.031 (≈ 0.0508 µM) | 0.031 (≈ 0.0508 µM) | 1 (≈ 1.64 µM) | 1 (≈ 1.64 µM) | 2 (≈ 3.28 µM) | 0.063 (≈ 0.103 µM) | 0.031 (≈ 0.0508 µM) | 0.016 (≈ 0.0262 µM) | 4 (≈ 6.56 µM) | ≤ 0.008 | 0.13 (≈ 0.213 µM) | 2 (≈ 3.28 µM) | 0.031 (≈ 0.0508 µM) | > 128 | MIC [20]: 0.031 µg/mL (≈ 0.0508 µM); MIC [21]: > 128 µg/mL; MIC [22]: 2 µg/mL (≈ 3.28 µM); MIC [23]: 2 µg/mL (≈ 3.28 µM); MIC [24]: 0.5 µg/mL (≈ 0.82 µM); MIC [25]: 0.063 µg/mL (≈ 0.103 µM)
CCC[n+]1c(N)cc(N)nc1SCC1=C(C(=O)[O-])N2C(=O)C(NC(=O)/C(=N\O[C@H](C)C(=O)O)c3csc(N)n3)[C@H]2SC1 (stereo partly drawn) [I-R-4, 7-[(Z)-2-(2-aminothiazol-4-yl)-2-[(R)-1-carboxyeth-1-oxyimino]acetamido]-3-[(4,6-diamino-1-propylpyrimidinium-2-yl)thiomethyl]-3-cephem-4-carboxylate] | > 3000 | 0.063 (≈ 0.0988 µM) | ≤ 0.008 | 1 (≈ 1.57 µM) | 8 (≈ 12.5 µM) | 0.063 (≈ 0.0988 µM) | 0.063 (≈ 0.0988 µM) | 0.063 (≈ 0.0988 µM) | 2 (≈ 3.14 µM) | 0.5 (≈ 0.784 µM) | 1 (≈ 1.57 µM) | 0.13 (≈ 0.204 µM) | 0.031 (≈ 0.0486 µM) | 0.016 (≈ 0.0251 µM) | 2 (≈ 3.14 µM) | ≤ 0.008 | 0.25 (≈ 0.392 µM) | 1 (≈ 1.57 µM) | 0.063 (≈ 0.0988 µM) | 64 (≈ 100 µM) | MIC [20]: 0.063 µg/mL (≈ 0.0988 µM); MIC [21]: > 128 µg/mL; MIC [22]: 2 µg/mL (≈ 3.14 µM); MIC [23]: 4 µg/mL (≈ 6.27 µM); MIC [24]: 0.5 µg/mL (≈ 0.784 µM); MIC [25]: 0.063 µg/mL (≈ 0.0988 µM)
